According to US5800838A, “Composition that inhibits or destroys at least one unicellular living organism containing fluorine F- and Lithium li+” (priority 1987, dated 1998):
Like-named read-outs stand apart in the source and are kept apart here.

Experiments:
Gardnerella vaginalis [1] = experiment: Contact methodology AFNOR standard I 72-151, strains surviving (second trial); assay type: cell-based; details: 15-min contact, NaF or LiF 1 mg/l where added
Experimental: The second trial carried out was performed according to the contact methodology described in AFNOR standard I 72-151, by counting the strains surviving after a 15-min active substance/microbacterial solution contact followed by a filtration on a membrane (porosity 0.22 μm).
In this trial, 26 wild-type strains of Gardnerella vaginalis were tested, originating from hospital sources. The starting solution contained 0.1% of benzalkonium chloride, and was then diluted to 10^-1, 10^-2, 10^-3 and 10^-4. The results are summarized in the table below, which gives the total number of strains surviving (out of the 26 tested) in terms of the dilution.

Neisseria gonorrhoea = experiment: MIC on hospital strains (Example 13); assay type: cell-based; details: read-out: MIC of benzalkonium chloride
Experimental: (§1) The same trials as in example 12 were carried out on hospital strains of various microorganisms.

Gardenerella vaginalis = experiment: MIC on hospital strains (Example 13); assay type: cell-based; details: read-out: MIC of benzalkonium chloride
Experimental: as §1

Ducrey's bacillus [2] = experiment: MIC on hospital strains (Example 13); assay type: cell-based; details: read-out: MIC of benzalkonium chloride
Experimental: as §1

Aspergillus niger = experiment: MIC on hospital strains (Example 13); assay type: cell-based; details: read-out: MIC of benzalkonium chloride
Experimental: as §1

Streptococcus faecalis = experiment: MIC on hospital strains (Example 13); assay type: cell-based; details: Enterococcus faecalis, read-out: MIC of benzalkonium chloride
Experimental: as §1

Staphylococcus aureus = experiment: MIC on hospital strains (Example 13); assay type: cell-based; details: read-out: MIC of benzalkonium chloride
Experimental: as §1

Trichomonas vaginalis = experiment: MIC on hospital strains (Example 13); assay type: cell-based; details: read-out: MIC of benzalkonium chloride
Experimental: as §1

Candida albicans = experiment: MIC on hospital strains (Example 13); assay type: cell-based; details: read-out: MIC of benzalkonium chloride
Experimental: as §1

Bacillus subtilis = experiment: MIC on hospital strains (Example 13); assay type: cell-based; details: read-out: MIC of benzalkonium chloride
Experimental: as §1

Escherichia coli = experiment: MIC on hospital strains (Example 13); assay type: cell-based; details: read-out: MIC of benzalkonium chloride
Experimental: as §1

Sarcina lutea = experiment: MIC on hospital strains (Example 13); assay type: cell-based; details: Micrococcus luteus, read-out: MIC of benzalkonium chloride
Experimental: as §1

Gardnerella vaginalis [3] = experiment: Number of strains inhibited, bactericidal substance incorporated in culture medium (first trial); assay type: cell-based; details: for MBC: Gardnerella vaginalis, 24 h, read-out: totally lethal concentration; for number of strains inhibited out of the 32 tested: NaF or LiF 1 mg/l where added
Experimental: In the first trial, the sample of bactericidal substance was incorporated directly in the specific culture edium of the microorganism. A concentration series of the bactericidal substance was prepared in the geometric ratio of 2, from 400 μg/ml to 1.56 μg/ml. The cell concentration used in the seeding of the Petri dishes was […]. A 24-hour incubation was performed at 37° C. and then, for each wild-type strain tested, the concentration of primary principle destroying all the microorganisms (see method of Professor F. CATALAN et al., Institut A. FOURNIER, PARIS) was determined. The trail was performed on 32 wild-type strains of Gardnerella vaginalis originating from hospital sources and with benzalkonium chloride and then nonoxinol 9 as active principles, and with sodium fluoride NaF at a concentration of 1 mg/l and then lithium fluoride LiF at a concentration of 1 mg/l as activating principles.

DUCREY's bacillus [4] = experiment: MIC with respect to DUCREY's bacillus; assay type: cell-based, DUCREY's Haemophilus; details: read-out: MIC of the primary active principle
Experimental: The methodology employed is that described by Professor F. CATALAN, P. SEDNAOUI, A. MILOVANOVIC et al., Institut A. FOURNIER, PARIS.
The trials were performed on 8 wild-type strains of DUCREY's Haemophilus. The following results were recorded with respect to these strains: […]

[5] = system: Pseudomonas aeruginosa CNCM A 22; details: cited from earlier work
spermatozoa [6] = experiment: SANDERS-CRAMER total spermicidal test according to IPPF standards; assay type: cell-based; details: with 1 ml solution containing 0.0001% lithium fluoride; in the initial 1 millilitre
[7] = system: Staphylococcus aureus Oxford strain CNCM 53 154; details: cited from earlier work
[8] = system: Mycobacterium smegmatis CNCM 7 326; experiment: MIC, French standard NF T 72-150, AFNOR strain; assay type: cell-based; details: in the presence of LiF at 1 mg/l
Experimental: (§2) French standard NF T 72-150, March 1981, was followed by the trials carried out. The trials were performed on the strains defined by the AFNOR standard.
(§3) The results obtained on the strains defined by the AFNOR standard for benzalkonium chloride alone and for benzalkonium chloride with the addition of 1 mg/l of sodium fluoride were already given in unpublished European Patent Application 86/402,716.4, and have been recorded again.

[9] = system: Staphylococcus aureus Oxford strain CNCM 53 154; experiment: MIC, French standard NF T 72-150, AFNOR strain; assay type: cell-based; details: in the presence of LiF at 1 mg/l
Experimental: as §2, §3

[10] = system: Pseudomonas aeruginosa CNCM A 22; experiment: MIC, French standard NF T 72-150, AFNOR strain; assay type: cell-based; details: in the presence of LiF at 1 mg/l
Experimental: as §2, §3

[11] = system: Streptococcus faecalis CNCM 5 855; experiment: MIC, French standard NF T 72-150, AFNOR strain; assay type: cell-based; details: in the presence of LiF at 1 mg/l
Experimental: as §2, §3

[12] = system: Escherichia coli CNCM 54 127; experiment: MIC, French standard NF T 72-150, AFNOR strain; assay type: cell-based; details: in the presence of LiF at 1 mg/l
Experimental: as §2, §3

spermatozoa [13] = details: in the initial 1 millilitre, cited from earlier work
MAC COY cells = details: mouse
[14] = system: Escherichia coli CNCM 54 127; details: cited from earlier work
[15] = in the presence of LiF at 1 ppm
[16] = in the presence of NaF at 1 mg/l

Question: With CCCCCCCCCCCCCC[N+](C)(C)Cc1ccccc1.[Cl-] [benzalkonium chloride, myristyldimethylbenzylammonium chloride] as the compound, how does the “total number of strains surviving (out of the 26 tested)” value (“total number of strains surviving” for short) (Gardnerella vaginalis [1]; 0.1% solution diluted 10^-1) read?
Answer: 0

Question: And the “total number of strains surviving” value (Gardnerella vaginalis [1]; 0.1% solution diluted 10^-2)?
Answer: 18

Question: And the “total number of strains surviving” value (Gardnerella vaginalis [1]; 0.1% solution diluted 10^-3)?
Answer: 22

Question: What about the “total number of strains surviving” value (Gardnerella vaginalis [1]; 0.1% solution diluted 10^-4) of the same compound?
Answer: 26

Question: And the MIC (Neisseria gonorrhoea; alone)?
Answer: 1.15 µg/mL

Question: And the MIC (Neisseria gonorrhoea; [15])?
Answer: 0.6 µg/mL

Question: What about the MIC (Gardenerella vaginalis; alone) of the same compound?
Answer: 50 µg/mL

Question: And the MIC (Gardenerella vaginalis; [15])?
Answer: 41 µg/mL

Question: And the MIC (Ducrey's bacillus [2]; alone)?
Answer: 75 µg/mL

Question: And the MIC (Ducrey's bacillus [2]; [15])?
Answer: 62 µg/mL

Question: And the MIC (Aspergillus niger; alone)?
Answer: 85 µg/mL

Question: And the MIC (Aspergillus niger; [15])?
Answer: 80 µg/mL

Question: What about the MIC (Streptococcus faecalis; alone) of the same compound?
Answer: 15 µg/mL

Question: And the MIC (Streptococcus faecalis; [15])?
Answer: 9 µg/mL

Question: What about the MIC (Staphylococcus aureus; alone) of the same compound?
Answer: 1.56 µg/mL

Question: What about the MIC (Staphylococcus aureus; [15]) of the same compound?
Answer: 1 µg/mL

Question: What about the MIC (Trichomonas vaginalis; alone) of the same compound?
Answer: 1.3 µg/mL

Question: And the MIC (Trichomonas vaginalis; [15])?
Answer: 0.9 µg/mL

Question: What about the MIC (Candida albicans; alone) of the same compound?
Answer: 50 µg/mL

Question: And the MIC (Candida albicans; [15])?
Answer: 35 µg/mL

Question: What about the MIC (Bacillus subtilis; alone) of the same compound?
Answer: 8 µg/mL

Question: And the MIC (Bacillus subtilis; [15])?
Answer: 5.4 µg/mL

Question: And the MIC (Escherichia coli; alone)?
Answer: 8 µg/mL

Question: What about the MIC (Escherichia coli; [15]) of the same compound?
Answer: 6.5 µg/mL

Question: What about the MIC (Sarcina lutea; alone) of the same compound?
Answer: 11 µg/mL

Question: What about the MIC (Sarcina lutea; [15]) of the same compound?
Answer: 7.5 µg/mL

Question: And the MBC (Gardnerella vaginalis [3]; alone)?
Answer: 50 µg/mL

Question: And the MBC (Gardnerella vaginalis [3]; in the presence of LiF)?
Answer: 12.5 µg/mL

Question: And the MBC (Gardnerella vaginalis [3]; in the presence of NaF)?
Answer: 25 µg/mL

Question: And the “number of strains inhibited out of the 32 tested” value (Gardnerella vaginalis [3]; primary active principle 1.56 mg/l)?
Answer: 0

Question: What about the “number of strains inhibited out of the 32 tested” value (Gardnerella vaginalis [3]; primary active principle 3.125 mg/l) of the same compound?
Answer: 0

Question: And the “number of strains inhibited out of the 32 tested” value (Gardnerella vaginalis [3]; primary active principle 6.25 mg/l)?
Answer: 1

Question: What about the “number of strains inhibited out of the 32 tested” value (Gardnerella vaginalis [3]; primary active principle 12.5 mg/l) of the same compound?
Answer: 28

Question: What about the “number of strains inhibited out of the 32 tested” value (Gardnerella vaginalis [3]; primary active principle 25 mg/l) of the same compound?
Answer: 31

Question: And the “number of strains inhibited out of the 32 tested” value (Gardnerella vaginalis [3]; primary active principle 50 mg/l)?
Answer: 32

Question: What about the MIC (DUCREY's bacillus [4]; in the presence of LiF (1 mg/l)) of the same compound?
Answer: 65 µg/mL

Question: And the MIC (DUCREY's bacillus [4]; in the presence of NaF (1 mg/l))?
Answer: 85 µg/mL

Question: What about the MIC (DUCREY's bacillus [4]) of the same compound?
Answer: 100 µg/mL

Question: What about the “MIC of benzalkonium chloride” value ([5]; alone) of the same compound?
Answer: 31.25 µg/mL

Question: What about the “MIC of benzalkonium chloride” value [5, 16] of the same compound?
Answer: 18 µg/mL

Question: And the “MIC of benzalkonium chloride” value (spermatozoa [6])?
Answer: 0.0009%

Question: And the “MIC of benzalkonium chloride” value ([7]; alone)?
Answer: 1.56 µg/mL

Question: What about the “MIC of benzalkonium chloride” value [7, 16] of the same compound?
Answer: 1.1 µg/mL

Question: And the “MIC of benzalkonium chloride” value [8]?
Answer: 22 µg/mL

Question: What about the “MIC of benzalkonium chloride” value [9] of the same compound?
Answer: 1.1 µg/mL

Question: What about the “MIC of benzalkonium chloride” value [10] of the same compound?
Answer: 15 µg/mL

Question: What about the “MIC of benzalkonium chloride” value [11] of the same compound?
Answer: 2.8 µg/mL

Question: And the “MIC of benzalkonium chloride” value [12]?
Answer: 2 µg/mL

Question: And the “MIC of benzalkonium chloride” value (spermatozoa [13]; alone)?
Answer: 0.006%

Question: What about the “MIC of benzalkonium chloride” value (spermatozoa [13]; with 1 ml solution containing 0.0001% F^- anions) of the same compound?
Answer: 0.002%

Question: What about the “threshold of cytotoxic activity” value (MAC COY cells) of the same compound?
Answer: 0.01%

Question: What about the “MIC of benzalkonium chloride” value ([14]; alone) of the same compound?
Answer: 6.57 µg/mL

Question: And the “MIC of benzalkonium chloride” value [14, 16]?
Answer: 3 µg/mL
